Assay results from paper PMC6739215, “One-bead one-compound combinatorial library derived targeting ligands for detection and treatment of oral squamous cancer” (Oncotarget, 2019).
“Also recorded” adds a separate entry of the source. Read-outs that look alike come from different tables or passages of the source.

Columns and labels:
[1] = test system: normal human keratinocyte (NHK) cells; experiment: MTS assay evaluation of cytotoxicity; format: cell-based; conditions: 48 hours treatment, up to 50 μM
Protocol: MTS assay was used to evaluate the potential cytotoxicity of peptides against normal human keratinocytes. Briefly, 2 × 10^3 NHK cells were seeded in 96 well tissue culture plates and analysis was performed 48 hours after treatment with LLY12 and LLY13 by adding 20 μL per well of the tetrazolium salt MTS, 3-(4,5-dimethylthiazol-2-yl)-5-(3-carboxymethoxyphenyl)-2-(4-sulfophenyl)-2H-tetrazolium for 2 hours at 37° C. The 96 well plates were read on a VERSA max tunable microplate reader at 490 nm. Similar to the MTT assay, the reduction of MTS solutions to formazan reflects mitochondrial activity and cell viability by proxy.

[2] = test system: human oral cancer cells HSC-3; experiment: Flow cytometry study of binding affinity of ligands; conditions: HSC-3 cells; for Kd: biotinylated peptide followed by streptavidin-PE
Protocol: Flow cytometry was employed to compare the binging affinity of LLY12 and LLY13 [25–27]. Confluent tumor cells (80–90%) were dissociated with 0.05% trypsin-EDTA and neutralized with culture medium. After washed three times with F10 buffer, containing PBS with 10% FBS and 1 mM MnCl2 , the human oral cancer cells HSC-3 (3 × 10^5) were added with different concentration of biotinylated LLY12 and LLY13 in 50 μL F10 media for 30 minutes on ice. Then each sample was washed three times with 1 mL PBS containing 1% FBS. Samples thereafter were incubated with a 1:500 dilution of streptavidin-phycoerythrin (1 mg/mL) for 30 min on ice followed by a single wash with 1 mL of PBS containing 1% FBS. Finally, the samples in PBS were analyzed by flow cytometry and the mean fluorescence intensity (MFI) was acquired for each individual sample.

[3] = test system: HSC-3 cells and MOK-101 cells; experiment: Peptide induced cell uptake assay (confocal); format: cell-based, human; conditions: HSC-3 and MOK-101 cells, up to 3 hours, cytoplasm and nucleus
Protocol: Peptide induced cell uptake assay was used to investigate endocytic uptake of the targeting peptide by live OSC cells. Biotinylated LLY13 was pre-incubated (50 μM) with streptavidin-Alexa488 (1mg/mL) for 2 hours at room temperature and then at 4° C overnight to form the biotin-peptides/streptavidin-Alexa488 complex. Oral cancer cells of HSC-3 cells and MOK-101 were seeded in chamber slides at a concentration of 2.3 × 10^4 cells. After 60% confluency, biotin-peptides-streptavidin-Alexa488 complexes were added at different time intervals (30 min, one hour, two hours and three hours). By the end of experiments, 1:2000 dilution of DAPI was added to the specimens. Peptide induced endocytic uptake of cancer cells was observed under confocal laser scanning microscope.

Substance | cytotoxicity (MTS assay) [1] | Kd ([2]; read-out: Kd value) [µM] | Bmax value (maximum binding capacity) ([2]; flow cytometry) | Bmax (maximum binding) ([2]; flow cytometry, Figure 4) [AU] | cellular uptake (internalization) by live OSC cells [3] | Kd ([2]; Figure 4, read-out: Kd) [µM] | maximum binding capacity in comparison to LLY12 ([2]; flow cytometry)
cyclic cdG (Nle) G(Hyp) Lc [LLY12] | no obvious cytotoxicity; also recorded: not cytotoxic | 0.87 | 248 | 248 | not observed | – | –
cyclic cdGYG (Hyp) Wc [LLY13] | no obvious cytotoxicity; also recorded: not cytotoxic | 1.27 | 764 | 764 | – | 1.23 | around 3 fold
